Earlier results in US5580957A, “GnRH analogs” (The Salk Institute for Biological Studies, priority 1994, dated 1996).

Assays:
[1] = target: T1, receptor (GnRH) (Homo sapiens, UniProt P30968); settings: background statement
T1 sequence (P30968 1-328): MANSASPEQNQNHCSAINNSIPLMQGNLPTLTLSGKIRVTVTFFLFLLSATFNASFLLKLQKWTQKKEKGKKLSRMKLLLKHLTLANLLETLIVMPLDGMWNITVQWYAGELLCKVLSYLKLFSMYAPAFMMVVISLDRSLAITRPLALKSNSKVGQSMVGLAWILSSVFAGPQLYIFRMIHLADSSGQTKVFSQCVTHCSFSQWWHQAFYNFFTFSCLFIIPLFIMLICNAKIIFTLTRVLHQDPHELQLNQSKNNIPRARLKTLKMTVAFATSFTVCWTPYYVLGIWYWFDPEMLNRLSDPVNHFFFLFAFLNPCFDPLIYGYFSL

[2] = system: GnRH; settings: background statement

pGlu-His-Trp-Ser-Tyr-D-Ala-Leu-Arg-Pro-Gly-NH2 [[D-Ala^6]-GnRH]
binding strength to the receptor versus native hormone [1]: greater binding strength | biological potency versus native hormone [2]: greater biological potency than the native hormone
